Data set [1] has as its system female diabetic db/db mice. Nature of the data set: serum glucose, triglyceride and thyroxine levels in db/db mice. Conditions: for Glucosc Day 0 / Triglycerides Day 0: Day 0 (pre-treatment).
Protocol: An assay described below tests the effect of compounds of the invention on serum glucose, tryglyceride and thyroxine levels in female 9-10 weeks old db/db mice.
Female diabetic db/db (9-10 weeks old) mice were maintained on standard laboratory food and treated by oral gavage with vehicle (corn oil), standard compound (2E,4E,1′S,2′S)-3-methyl-5-[2′-methyl-2′-(5,5,8,8-tetramethyl-5,6,7,8-tetrahydro-naphthalen-2-yl)-cyclopropyl]-penta-2,4-dienoic acid (5 mg/kg) or the test compound (5-100 mg/kg, as described in Table 2) daily for seven days at 8:00 AM. Blood samples (70 μl) were taken by orbital bleeding at 11:00 AM on day 0 (pre-treatment), day 3, and day 6. On day 7, a blood sample (700 μl) was taken at 11:00 AM and the animals were sacrificed. Glucose, triglyceride and thyroxine (T4) levels were determined on a Boehringer Manheim Hatachi Clinical Chemistry Analyzer using standard protocols provided by the manufacturer and reagents that were supplied in commercially available kits (glucose and T4: Boehringer Manheim; triglycerides: Roche Diagnostics). A NUMBER OF animals were treated in each group.
Data set [2] has as its target T1, RXRα (Homo sapiens, UniProt P19793).
T1 construct: expressed in transfected cells
T1 sequence (P19793 1-462): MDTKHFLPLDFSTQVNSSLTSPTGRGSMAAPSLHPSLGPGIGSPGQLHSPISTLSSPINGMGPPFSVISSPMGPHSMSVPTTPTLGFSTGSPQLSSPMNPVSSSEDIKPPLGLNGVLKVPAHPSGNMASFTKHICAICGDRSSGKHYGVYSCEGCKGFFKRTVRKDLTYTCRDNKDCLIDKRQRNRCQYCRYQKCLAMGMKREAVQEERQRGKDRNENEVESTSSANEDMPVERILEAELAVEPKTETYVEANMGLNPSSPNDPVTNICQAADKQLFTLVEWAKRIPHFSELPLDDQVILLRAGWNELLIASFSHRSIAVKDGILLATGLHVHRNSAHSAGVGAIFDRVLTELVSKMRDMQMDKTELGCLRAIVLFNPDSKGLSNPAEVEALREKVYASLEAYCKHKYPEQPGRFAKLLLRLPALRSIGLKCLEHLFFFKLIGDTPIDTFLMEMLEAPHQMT
Nature of the data set: holoreceptor transactivation assay, RXRα. The following applies: for EC50: holoreceptor assay, read-out: RXR Trans. EC50 α; for RXR Trans. efficacy α (in parentheses): percentage compared to the standard compound. The data set is classed as cell-based. An excerpt: (§1) A holoreceptor transactivation assay and a ligand binding assay which measure the antagonist/agonist like activity of the compounds of the invention, or their ability to bind to the several retinoid receptor subtypes, respectively, are described in published PCT Application No. WO WO093/11755 (particularly on pages 30-33 and 37-41) published on Jun. 24, 1993, the specification of which is also incorporated herein by reference. A detailed experimental procedure for holoreceptor transactivations has been described by Heyman et al. Cell 68, 397-406, (1992); Allegretto et al. J. Biol. Chem. 268, 26625-26633, and Mangelsdorf et al. The Retinoids: Biology, Chemistry and Medicine, pp 319-349, Raven Press Ltd., New York, which are expressly incorporated herein by reference. The results obtained in this assay are expressed in EC50 numbers, as they are also in the chimeric receptor transactivation assay. The results of the ligand binding assay are expressed in Ki numbers. (See Cheng et al Biochemical Pharmacology Vol. 22 pp 3099-3108, expressly incorporated herein by reference.)
(§2) This standard compound is described in U.S. Pat. No. 6,114,533.
(§3) Table 1 discloses the activity of certain exemplary compounds of the invention in the above-described receptor transactivation and binding assays. Particularly, the transactivation data pertaining to activation of the RAR receptors were obtained in the chimeric assay, and the transactivation data pertaining to the activation of RXR receptors were obtained in the holoreceptor assay.

In data set [3] the target is T2, RXRβ (Homo sapiens, UniProt P28702).
T2 construct: expressed in transfected cells
T2 sequence (P28702 1-533): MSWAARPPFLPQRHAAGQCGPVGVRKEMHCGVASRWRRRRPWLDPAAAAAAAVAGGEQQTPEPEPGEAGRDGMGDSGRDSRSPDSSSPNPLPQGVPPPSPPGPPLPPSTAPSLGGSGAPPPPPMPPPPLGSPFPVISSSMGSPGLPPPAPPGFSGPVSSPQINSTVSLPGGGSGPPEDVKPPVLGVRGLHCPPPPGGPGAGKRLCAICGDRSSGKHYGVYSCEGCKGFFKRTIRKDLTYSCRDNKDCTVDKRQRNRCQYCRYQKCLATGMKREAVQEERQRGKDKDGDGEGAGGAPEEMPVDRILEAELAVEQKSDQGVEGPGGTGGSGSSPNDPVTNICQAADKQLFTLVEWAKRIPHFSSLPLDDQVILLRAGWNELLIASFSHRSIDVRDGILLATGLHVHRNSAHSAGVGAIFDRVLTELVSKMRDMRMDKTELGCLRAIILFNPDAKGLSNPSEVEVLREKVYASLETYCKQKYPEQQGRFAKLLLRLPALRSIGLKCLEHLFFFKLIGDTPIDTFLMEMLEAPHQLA
Briefly: holoreceptor transactivation assay, RXRβ. The data set is classed as cell-based. Conditions: for EC50: holoreceptor assay, read-out: RXR Trans. EC50 β; for RXR Trans. efficacy β (in parentheses): percentage compared to the standard compound.
Excerpt: as §1, §2, §3

The target of data set [4] is T3, RXRγ (Homo sapiens, UniProt P48443).
T3 construct: expressed in transfected cells
T3 sequence (P48443 1-463): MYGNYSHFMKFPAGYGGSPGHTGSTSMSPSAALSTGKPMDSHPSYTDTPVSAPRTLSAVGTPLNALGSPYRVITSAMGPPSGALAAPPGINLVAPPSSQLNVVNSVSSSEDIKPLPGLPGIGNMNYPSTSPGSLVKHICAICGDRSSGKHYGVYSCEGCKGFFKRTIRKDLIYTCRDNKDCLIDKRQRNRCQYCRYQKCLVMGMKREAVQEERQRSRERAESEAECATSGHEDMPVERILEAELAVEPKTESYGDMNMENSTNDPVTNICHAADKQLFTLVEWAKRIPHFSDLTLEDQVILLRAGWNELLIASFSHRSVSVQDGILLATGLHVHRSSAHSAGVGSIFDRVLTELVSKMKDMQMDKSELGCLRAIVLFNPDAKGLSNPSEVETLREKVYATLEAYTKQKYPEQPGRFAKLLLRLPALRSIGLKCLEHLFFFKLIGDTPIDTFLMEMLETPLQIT
Nature of the data set: holoreceptor transactivation assay, RXRγ. The data set is classed as cell-based. Conditions: for EC50: holoreceptor assay, read-out: RXR Trans. EC50 γ; for RXR Trans. efficacy γ (in parentheses): percentage compared to the standard compound.
Excerpt: as §1, §2, §3

In the next data set the target is T4, RARα (Homo sapiens, UniProt P10276).
T4 sequence (P10276 1-462): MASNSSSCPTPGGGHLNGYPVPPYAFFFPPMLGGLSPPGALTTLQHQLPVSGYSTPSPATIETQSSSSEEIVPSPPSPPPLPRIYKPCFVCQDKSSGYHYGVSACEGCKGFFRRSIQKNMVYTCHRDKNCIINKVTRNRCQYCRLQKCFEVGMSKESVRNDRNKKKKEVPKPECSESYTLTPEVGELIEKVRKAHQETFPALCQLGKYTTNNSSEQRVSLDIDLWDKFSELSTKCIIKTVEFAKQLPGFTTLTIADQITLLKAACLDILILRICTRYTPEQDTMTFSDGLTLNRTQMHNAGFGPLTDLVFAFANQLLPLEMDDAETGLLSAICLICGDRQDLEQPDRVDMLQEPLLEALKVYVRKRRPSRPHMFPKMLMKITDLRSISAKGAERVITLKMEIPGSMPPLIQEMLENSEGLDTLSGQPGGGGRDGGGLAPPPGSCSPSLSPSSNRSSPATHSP
Nature of the data set: ligand binding assay, RARα. Conditions: read-out: RAR Bind. Ki α.
Excerpt: as §1

The next data set has as its target T5, RARβ (Homo sapiens, UniProt P10826).
T5 sequence (P10826 1-455): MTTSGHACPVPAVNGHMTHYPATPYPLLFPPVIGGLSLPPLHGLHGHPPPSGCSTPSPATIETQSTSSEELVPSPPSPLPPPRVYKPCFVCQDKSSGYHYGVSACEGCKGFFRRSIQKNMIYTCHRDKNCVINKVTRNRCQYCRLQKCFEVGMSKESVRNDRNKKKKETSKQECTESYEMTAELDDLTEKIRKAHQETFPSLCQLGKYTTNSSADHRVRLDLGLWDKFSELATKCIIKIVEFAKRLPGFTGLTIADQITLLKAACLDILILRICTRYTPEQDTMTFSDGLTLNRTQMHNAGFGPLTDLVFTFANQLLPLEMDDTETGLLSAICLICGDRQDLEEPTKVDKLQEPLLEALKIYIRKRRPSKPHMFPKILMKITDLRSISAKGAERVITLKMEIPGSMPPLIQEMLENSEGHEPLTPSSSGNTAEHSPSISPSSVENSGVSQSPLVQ
Nature of the data set: ligand binding assay, RARβ. The following applies: read-out: RAR Bind. Ki β.
Excerpt: as §1

For the next data set, the target named is T6, RARγ (Homo sapiens, UniProt P13631).
T6 sequence (P13631 1-454): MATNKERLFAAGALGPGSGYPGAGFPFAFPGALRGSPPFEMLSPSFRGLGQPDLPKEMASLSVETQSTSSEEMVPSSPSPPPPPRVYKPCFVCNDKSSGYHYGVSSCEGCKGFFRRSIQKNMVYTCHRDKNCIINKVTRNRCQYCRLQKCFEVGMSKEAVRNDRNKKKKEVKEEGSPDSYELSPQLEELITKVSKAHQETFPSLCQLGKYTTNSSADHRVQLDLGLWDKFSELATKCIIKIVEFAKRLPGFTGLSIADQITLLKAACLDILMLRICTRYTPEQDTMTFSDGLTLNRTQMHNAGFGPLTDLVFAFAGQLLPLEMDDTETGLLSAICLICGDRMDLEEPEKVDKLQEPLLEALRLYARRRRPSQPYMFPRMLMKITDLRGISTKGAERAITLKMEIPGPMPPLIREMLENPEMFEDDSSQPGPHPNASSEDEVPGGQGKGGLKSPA
Nature of the data set: ligand binding assay, RARγ. The following applies: read-out: RAR Bind. Ki γ.
Excerpt: as §1

Data set [5] addresses T1, RXRα. Briefly: ligand binding assay, RXRα. The following applies: read-out: RXR Bind Ki α.
Excerpt: as §1

In data set [6] the target is T2, RXRβ. Briefly: ligand binding assay, RXRβ. Conditions: read-out: RXR Bind Ki β.
Excerpt: as §1

In data set [7] the target is T3, RXRγ. Briefly: ligand binding assay, RXRγ. Conditions: read-out: RXR Bind Ki γ.
Excerpt: as §1

As for `CC(/C=C/[C@@H]1C[C@]1(C)c1ccc2c(c1)C(C)(C)CCC2(C)C)=C\C(=O)O` [Standard compound, (2E,4E,1′S,2′S)-3-methyl-5-[2′-methyl-2′-(5,5,8,8-tetramethyl-5,6,7,8-tetrahydro-naphthalen-2-yl)-cyclopropyl]-penta-2,4-dienoic acid], in data set [1] (4 mg/kg oral gavage daily), the “Glucosc Day 0” value came to 524 ± 45 mg/dL; the “Triglycerides Day 0” value stood at 273 ± 66 mg/dL; the “Glucosc Day 3, 3h” value came out at 512 ± 156 mg/dL; the “Triglycerides Day 3, 3h” value was found to be 755 ± 464 mg/dL. Also, in data set [1] (4 mg/kg oral gavage daily), the “Glucosc Day 6, 3h” value was determined as 459 ± 148 mg/dL. For the same compound, the “T4 Day 7” value in data set [1] (4 mg/kg oral gavage daily, Day 7) came out at 1.4 ± 0.5 µg/dL.

Regarding `CCN1CCC(C)(C)c2cc(C(C)C)cc(\C(C)=C(F)/C=C/C(C)=C/C(=O)O)c21` [Compound 27, (2E,4E,6E)-7-(1-Ethyl-6-isopropyl-4,4-dimethyl-1,2,3,4-tetrahydro-quinolin-8-yl)-6-fluoro-3-methyl-octa-2,4,6-trienoic acid], the EC50 (commonly the concentration giving half of the maximal effect) at RXRα [2] was determined as 0.0001 µM; at RXRβ [3], 0.0005 µM; at RXRγ [4], 0.0001 µM. In addition, at RXRα [2], the “RXR Trans. efficacy α (in parentheses)” value stood at 74%. For the same compound, the “RXR Trans. efficacy β (in parentheses)” value at RXRβ [3] was 77%. On RXRγ [4], the “RXR Trans. efficacy γ (in parentheses)” value worked out at 75%. Further, the Ki (as a rule, a dissociation constant, usually derived from enzyme kinetics or from competition with a known ligand) at RARα came out at 0.68 µM; at RARβ, 0.84 µM; on RARγ, 2.5 µM; on RXRα [5], 0.001 µM; at RXRβ [6], 0.011 µM.

In the case of `CC/C(=C(F)/C=C/C(C)=C/C(=O)O)c1cc(C(C)C)cc2c1N(CC)CCC2(C)C` [Compound 28, (2E,4E,6E)-7-(1-Ethyl-6-isopropyl-4,4-dimethyl-1,2,3,4-tetrahydro-quinolin-8-yl)-6-fluoro-3-methyl-nona-2,4,6-trienoic acid], the EC50 at RXRα [2] was 0.0003 µM; on RXRβ [3], 0.0004 µM; at RXRγ [4], 0.0003 µM. Besides, the “RXR Trans. efficacy α (in parentheses)” value at RXRα [2] came out at 86%. In addition, the “RXR Trans. efficacy β (in parentheses)” value at RXRβ [3] came out at 66%. For the same compound, the “RXR Trans. efficacy γ (in parentheses)” value at RXRγ [4] came to 75%. Further, the Ki came out at 0.705 µM at RARα; 0.43 µM at RARβ; 2 µM on RARγ; 0.002 µM on RXRα [5]; 0.021 µM at RXRβ [6]; 0.021 µM at RXRγ [7].

On to `CCCN1CCC(C)(C)c2cc(C(C)C)cc(\C(C)=C(F)/C=C/C(C)=C/C(=O)O)c21` [Compound 29, (2E,4E,6E)-6-Fluoro-7-(6-isopropyl-4,4-dimethyl-1-propyl-1,2,3,4-tetrahydro-quinolin-8-yl)-3-methyl-octa-2,4,6-trienoic acid], for which, at RXRα [2], the EC50 was found to be 0.002 µM and the “RXR Trans. efficacy α (in parentheses)” value is on record as 32%. Also, at RXRβ [3], the EC50 was 0.006 µM and the “RXR Trans. efficacy β (in parentheses)” value amounted to 27%. Further, on RXRγ [4], the EC50 turned out to be 0.002 µM and the “RXR Trans. efficacy γ (in parentheses)” value is 10%. Besides, on RARα, the Ki was determined as 0.48 µM. Besides, the Ki on RARβ came out at 0.45 µM. Also, at RARγ, the Ki was 1.4 µM. Besides, the Ki on RXRα [5] is 0.001 µM. For the same compound, the Ki on RXRβ [6] was found to be 0.015 µM. Besides, in data set [1] (50 mg/kg oral gavage daily), the “Glucosc Day 0” value stood at 523 ± 84 mg/dL; the “Triglycerides Day 0” value was 316 ± 339 mg/dL; the “Glucosc Day 3, 3h” value turned out to be 476 ± 96 mg/dL; the “Triglycerides Day 3, 3h” value was 326 ± 111 mg/dL. Further, the “Glucosc Day 6, 3h” value in [1] (50 mg/kg oral gavage daily) came to 441 ± 184 mg/dL.

(Values after US6734193B1, “(1,2,3,4-tetrahydroquinolin-8-yl)-heptatrienoic acid derivatives having serum glucose reducing activity” (Allergan, Inc., priority 2003, dated 2004).)
